# Experimental data: US9587220B2, “Method for inducing cardiac differentiation of pluripotent stem cell” (Kyoto University, priority 2012, dated 2017)
# “Also recorded” adds a separate entry of the source.
# What was measured:
# [1] = system: TCF promoter activity in HEK293 cells; assay: TOPflash TCF reporter assay in HEK293 cells; type: cell-based, human; settings: 10 μM
# Experimental: For the TCF reporter assay, IMR90-1 hiPSCs were cultured in the serum-containing differentiation culture, as described above, and transfected with TOPFlash plasmid (Millipore 21-170) and pRL-SV40 plasmid (Renilla luciferase transfection control, Promega E1980) on Day 2, using FuGENE HD transfection Reagenet (Promega E2311). After 24 h, 10 μM KY02111, 10 μM XAV939, or 10 μM IWP-2 was added to the medium, along with either 60 ng ml^−1 of mouse Wnt3a (Wako 232-02421) or 3 μM BIO. After 48 h of transfection (Day 4), luciferase activities were measured using a Dual-Luciferase Reporter 1000 Assay System kit (Promega E1980) and a 2030 ARVO X3 plate reader (PerkinElmer). Luciferase activities were normalized to the luminescence of the transfection control, Rennila luciferase, according to the kit protocol. For experiments using HEK293 cells, the cells were cultured in 10% FBS DMEM medium, and transfected with TOPflash and pRL-SV40 plasmid, using FuGENE HD. After 24 h, the transfected cells were seeded onto 96-well plates (10,000 cells well^−1) in medium containing 10 μM KY02111, 10 μM XAV939, or 10 μM IWP-2, along with 3 μM BIO or 60 ng ml^−1 mouse Wnt3a. Luciferase activities were measured 48 h after transfection by the procedure described above.
# [2] = system: IMR90-1 hiPSCs; assay: Cardiac differentiation with BIO and CHIR99021 (Days 0-3) followed by WNT inhibitors, serum-free or serum medium; type: cell-based, human
# Experimental: After pre-culture in Petri dishes as described above, cell aggregates were attached to culture dishes coated with gelatin (Sigma G2625) or human laminin 211 (BioLamina, Sweden) at 3-10×10^5 cells cm^-2, in serum-free cardiac differentiation medium: IMDM (Sigma) containing 1% MEM non-essential amino acid solution (Sigma), 1% Penicillin-Streptomycin (Gibco), 2 mM L-glutamine (Sigma), 0.5 mM L-carnitine (Sigma), 0.001% 2-Mercapcoethanol (Gibco), and 1-2% bovine serum albumin (Wako, Japan) or 0.4% human serum albumin (Sigma), with 5 μM CHIR99021 (Axon) and 2 μM BIO (Calbiochem). On Days 3-9, 10 μM KY02111 and/or other WNT inhibitors (XAV939 and/or IWP-2) were added to cell cultures, and the medium was changed every 2 d. On Day 15, the cardiac colonies were incubated with the protease solution for 5-10 min, until all colonies were detached from the bottom of the wells. The cardiac colonies were transferred into 15 ml tubes with cardiac differentiation medium including 0.1% albumin, and precipitated by gravity, the supernatant was removed, and the cardiac colonies were transferred to Ultra-low culture 6-well plates (Corning, YO-01835-24) with cardiac differentiation medium including 0.1% albumin. The floating cardiac colonies were maintained for more than 1 month, and the media were changed every 5 d. Cardiac colonies were dissociated by stirring for 1-2 h at 37° C. with the protease solution described above, cultured for 1 d on cover glasses coated with gelatin (Sigma), and fixed with 4% paraformaldehyde. After permeabilizing with Triton X, the cells were treated with 2% skim milk for 1-2 h, then incubated with primary antibodies for 2 h: NKX2.5 (rabbit polyclonal, 1:250; Abcam), αActinin (mouse monoclonal, 1:800; Sigma), cardiac TnT (mouse monoclonal, 1:100; Santa Cruz Biotechnology), Vimentin (mouse monoclonal, 1:800; Sigma V6630), and HCN4 (mouse monoclonal, 1:400; Abcam). The secondary antibodies used were Alexa546-conjugated anti-mouse IgG, Alexa488-conjugated anti-mouse IgG, and Alexa488-conjugated anti-rabbit IgG (1:1000; all from Molecular Probes, Invitrogen). Nuclei were visualized by DAPI. Images were captured under fluorescent microscopy (Olympus). The number of cTnT, αActinin, NKX2.5, HCN4, and Vimentin-positive cells were counted from three random areas, using the Metamorph imaging system (Molecular Devices). Approximately 1000 DAPI-stained cells were used to calculate the proportion of immunopositive cells (the number of immunopositive cells divided by the number of DAPI-stained cells). […] Cells were analyzed using a FACS CantoII flow cytometer (BD Biosciences). Data was analyzed using […] software (BD Biosciences).
compound,measurement,setting,value
"COc1ccc(CCC(=O)Nc2nc3ccc(Cl)cc3s2)cc1OC [KY02111, 2-(3-(3,4-dimethoxyphenyl)propanamide)-6-chlorobenzothiazole]",TCF promoter activity by Wnt3a,[1]; with 60 ng/ml Wnt3a,enhanced luciferase activity; also recorded: further augmented
same,TCF promoter activity by BIO,[1]; with 3 μM BIO,cancelled WNT activation by BIO; also recorded: inhibited
same,"number of beating colonies and total number of cardiomyocytes, defined medium (Alb) versus serum-containing medium (FBS)",[2]; FIG. 4e,increased more in defined medium (Alb)
same,proportion of cTnT-positive cells by immunostaining,[2]; albumin (serum-free),93.3%±4.4
same,differentiation efficiency (cTnT-positive cells) by FACS,[2]; cytokine- and serum-free conditions,90.2%
same,differentiation efficiency (cTnT-positive cells),[2]; with serum (FBS),83.7%±8.0
